Results reported in patent publication US12403104B2, “Compounds and methods of promoting myelination” (Case Western Reserve University, priority 2016, dated 2025).

Assays:
OPCs = assay: GC/MS-based sterol profiling in OPCs; type: cell-based, mouse; conditions: GC/MS, 24 h treatment (siRNA 96 h)
LPC-lesioned spinal cord [1] = assay: LPC focal demyelination of spinal cord, remyelination; type: in vivo, mouse; conditions: ifenprodil 10 mg per kg, tamoxifen 2 mg per kg, daily intraperitoneal, 8 days
[2] = test system: human glioma cells (GBM528); assay: GC/MS sterol profiling in human glioma cell line; type: cell-based; conditions: 24 h
EBP = molecular target: T1, EBP (Mus musculus, UniProt P70245); assay: EBP enzymatic assay (GC/MS); type: biochemical; conditions: 10 μM, zymostenol 25 μM
T1 construct: active EBP was obtained from mouse microsomes; from tissue
T1 sequence (P70245 1-230): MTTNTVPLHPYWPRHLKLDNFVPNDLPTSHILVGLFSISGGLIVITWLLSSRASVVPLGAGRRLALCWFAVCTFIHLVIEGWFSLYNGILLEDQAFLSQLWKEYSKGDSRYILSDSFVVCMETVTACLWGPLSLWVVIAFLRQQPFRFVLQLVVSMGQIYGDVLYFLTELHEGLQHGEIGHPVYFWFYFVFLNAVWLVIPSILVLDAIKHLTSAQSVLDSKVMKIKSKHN

LPC-lesioned spinal cord [3] = conditions: earlier work; cited from earlier work
mouse primary OPCs = assay: MBP+ oligodendrocyte formation from mouse primary OPCs; type: cell-based; conditions: 72 h
Method: To obtain mouse primary OPCs, whole brain was removed from post-natal day 2 pups anesthetized on ice. Brains were placed in cold DMEM/F12, and the cortices were isolated and the meninges were removed. The cortices were manually chopped and processed with the Tumor Dissociation Kit (Miltenyi) and incubated at 37° C. for 10 minutes. The cell suspension was filtered through a […] filter and centrifuged at 200×g for 4 minutes at room temperature. The cells were washed in DMEM/F12, re-centrifuged and plated in poly-Ornithine and Laminin-treated flasks containing DMEM/P12 supplemented with N2 Max, B27 (ThermoFisher), 20 ng/mL FGF, and 20 ng/mL PDGF. […] were passaged once prior to treatment. Media was changed every 48 hours.
Then, 40,000 cells were seeded per well in differentiation medium and allowed to attach for 30 min before addition of drug. For dose-response testing of all molecules except sterols, a 1000× compound stock in dimethyl sulphoxide (DMSO) was added to assay plates with 0.1 μL solid pin multi-blot replicators (V & P Scientific; VP 409), resulting in a final primary screening concentration of 1×. Sterols were added to cells as an ethanol solution (0.2% final ethanol concentration). […] Cells were incubated under standard conditions (37° C., 5% CO2) for 3 days and fixed with 4% paraformaldehyde (PFA) in phosphate buffered saline (PBS) for 20 min. […]

[4] = test system: mouse epiblast stem cell-derived OPCs; assay: In vitro phenotypic screening of OPCs (MBP+ oligodendrocytes at 72 h); type: cell-based
Method: Then, 40,000 cells were seeded per well in differentiation medium and allowed to attach for 30 min before addition of drug. […] Sterols were added to cells as an ethanol solution (0.2% final ethanol concentration). […] Cells were incubated under standard conditions (37° C., 5% CO2) for 3 days and fixed with 4% paraformaldehyde (PFA) in phosphate buffered saline (PBS) for 20 min. Fixed plates were washed with PBS (200 μL per well) twice, permeabilized with 0.1% Triton X-100 and blocked with 10% donkey serum (v/v) in PBS for 40 min. […] Nuclei were visualized by DAPI staining (Sigma; 1 μg/ml).

Structure (SMILES): CC/C(=C(\c1ccccc1)c1ccc(OCCN(C)C)cc1)c1ccccc1 [tamoxifen, Tamoxifen]
- sterol levels / sterol intermediate accumulation in OPCs (OPCs): induced accumulation of zymostenol and zymosterol and decreased basal sterol levels
- remyelination of LPC lesion (LPC-lesioned spinal cord [1]): remyelination was widespread throughout the lesion
- accumulation of sterol intermediates in human glioma cell line [2]: caused accumulation of the expected sterol intermediates
- inhibition of EBP enzymatic activity (EBP): clear inhibition

Structure (SMILES): CC(C(O)c1ccc(O)cc1)N1CCC(Cc2ccccc2)CC1 (stereo not drawn) [ifenprodil, Ifenprodil]
- remyelination of LPC lesion (LPC-lesioned spinal cord [1]): remyelination was widespread throughout the lesion
- accumulation of sterol intermediates in human glioma cell line [2]: caused accumulation of the expected sterol intermediates

Structure (SMILES): Clc1ccc(COC(Cn2ccnc2)c2ccc(Cl)cc2Cl)c(Cl)c1 (stereo not drawn) [miconazole, Miconazole]
- accumulation of sterol intermediates in human glioma cell line [2]: caused accumulation of the expected sterol intermediates
- remyelination in mouse models of demyelination (previously established) (LPC-lesioned spinal cord [3]): enhances remyelination in mouse models of demyelination

Structure (SMILES): Cc1cc(C)c(CNC(=O)c2cc(-c3ccc(CN4CCOCC4)cc3)cc3c2cnn3C2CCCC2)c(=O)[nH]1 [EPZ005687]
- sterol levels / sterol intermediate accumulation in OPCs (OPCs): uniquely caused accumulation of zymosterol and zymostenol in OPCs
- inhibition of EBP enzymatic activity (EBP): directly inhibiting EBP enzymatic activity
- oligodendrocyte formation from mouse primary OPCs (mouse primary OPCs): enhanced oligodendrocyte formation
- formation of MBP+ oligodendrocytes from OPCs [4]: enhanced oligodendrocyte formation
